Patent US20250230165A1, “HETEROCYCLIC COMPOUNDS FOR USE IN THE TREATMENT OF CANCER” (ARTIOS PHARMA LIMITED, priority 2021, published 2025)

Target: T1, Human Polθ polymerase domain (aa1820-2590) (Homo sapiens, UniProt O75417)
T1 construct: Human Polθ polymerase domain (aa1820-2590) was expressed in E. coli; made in house; host or cells: E. coli
T1 sequence (O75417 1820-2590): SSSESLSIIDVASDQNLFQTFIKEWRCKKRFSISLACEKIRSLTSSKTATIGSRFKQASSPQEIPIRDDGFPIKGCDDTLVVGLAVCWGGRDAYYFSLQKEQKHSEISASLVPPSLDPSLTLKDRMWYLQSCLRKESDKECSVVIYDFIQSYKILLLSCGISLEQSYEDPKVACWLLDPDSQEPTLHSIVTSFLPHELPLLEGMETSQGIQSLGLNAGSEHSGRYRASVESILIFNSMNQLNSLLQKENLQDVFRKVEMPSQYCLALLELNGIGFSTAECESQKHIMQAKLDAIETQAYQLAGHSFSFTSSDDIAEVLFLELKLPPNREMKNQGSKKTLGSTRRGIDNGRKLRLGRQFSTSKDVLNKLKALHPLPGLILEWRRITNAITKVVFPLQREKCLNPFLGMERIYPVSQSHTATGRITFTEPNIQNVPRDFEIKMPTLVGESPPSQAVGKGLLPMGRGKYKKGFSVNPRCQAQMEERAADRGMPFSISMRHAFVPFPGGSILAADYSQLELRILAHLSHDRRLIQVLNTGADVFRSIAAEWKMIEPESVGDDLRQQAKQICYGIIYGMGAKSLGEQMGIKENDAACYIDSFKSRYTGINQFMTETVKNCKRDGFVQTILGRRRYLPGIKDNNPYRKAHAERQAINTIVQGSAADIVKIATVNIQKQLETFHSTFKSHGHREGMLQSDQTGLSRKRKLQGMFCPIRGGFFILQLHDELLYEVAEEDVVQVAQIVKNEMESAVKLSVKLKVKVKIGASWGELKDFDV
Test: Polθ Polymerase Domain Kinact/KI Assay (PicoGreen)
Format: biochemical
Conditions: 0.8 nM Polθ, 100 nM DNA substrate, kobs vs [I] fit for 2-step covalent inhibitor
Outline: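 Time-dependent inhibition was followed by quenching reactions with EDTA at points up to 60 min, then staining product DNA with PicoGreen fluorescence. Reactions held 0.8 nM E. coli-expressed Polθ, 100 nM primed DNA substrate and […] at pH 7.5, 1% DMSO. kobs versus inhibitor concentration gave Kinact and KI.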

Compound	Kinact/Kl
C=C(CN(C)C)C(=O)N1CC(CCCN2C[C@H]3CC(=O)N(c4cc(C(F)(F)F)cc(C)n4)[C@@H]3C(=O)N(C)c3cccc(C)c32)C1 [Example 327, (3aR,11aS)-5-(3-(1-(2-((dimethylamino)-methyl)acryloyl)-azetidin-3-yl)propyl)-6,10-dimethyl-1-(6-methyl-4-(trifluoro-methyl)pyridin-2-yl)-1,3a,4,5,10,11a-hexa-hydro-2H-benzo[b] pyrrolo[2,3-f][1,4] diazocine-2,11(3H)-dione]	3.64e+06 M⁻¹ s⁻¹
C=C(CN(C)C)C(=O)N1CC2(CC(CN3C[C@H]4CC(=O)N(c5cc(C(F)(F)F)cc(C)n5)[C@@H]4C(=O)N(C)c4cccc(C)c43)C2)C1 [Example 328, (3aR,11aS)-5-((2-(2-((dimethylamino)-methyl)acryloyl)-2-azaspiro[3.3]heptan-6-yl)methyl)-6,10-dimethyl-1-(6-meth-yl-4-(trifluorometh-yl)pyridin-2-yl)-1,3a, 4,5,10,11a-hexa-hydro-2H-benzo[b] pyrrolo[2,3-f][1,4] diazocine-2,11(3H)-dione]	4.11e+06 M⁻¹ s⁻¹
(3aR,11aS)-5-(2-((3R/S,9aS/R)-8-acryloyl-3-methyl-4-oxooctahydro-2H-pyrazino[1,2-a]pyrazin-2-yl)ethyl)-6-fluoro-10-methyl-1-(6-methyl-4-(trifluoromethyl)pyridin-2-yl)-1,3a,4,5,10,11a-hexahydro-2H-benzo[b]pyrrolo[2,3-f][1,4]diazocine-2,11(3H)-dione [Example 107]	420000 M⁻¹ s⁻¹
(3aR,11aS)-5-(2-((3S/R,9aS/R)-8-acryloyl-3-methyl-4-oxooctahydro-2H-pyrazino[1,2-a]pyrazin-2-yl)ethyl)-6-fluoro-10-methyl-1-(6-methyl-4-(trifluoromethyl)pyridin-2-yl) 1,3a,4,5,10,11a-hexahydro-2H-benzo[b]pyrrolo[2,3-f][1,4]diazocine-2,11(3H)-dione [Example 110]	1e+06 M⁻¹ s⁻¹

Second part, the compound after the results:

Kinact/Kl	Compound
1.85e+06 M⁻¹ s⁻¹	Cc1cc(C(F)(F)F)cc(N2C(=O)C[C@@H]3CN(C[C@H]4C[C@H](NC(=O)/C=C/CN(C)C)C4)c4c(C)cccc4N(C)C(=O)[C@H]32)n1 [Example 331, (E)-N-((1R,3r)-3-(((3aR,11aS)-6,10-dimethyl-1-(6-meth-yl-4-(trifluorometh-yl)pyridin-2-yl)-2,11-dioxo-1,2,3,3a, 4,10,11,11a-octa-hydro-5H-benzo[b]pyrrolo[2,3-f][1,4]diazocin-5-yl)meth-yl)cyclobutyl)-4-(dimethylamino)but-2-enamide]
1.3e+06 M⁻¹ s⁻¹	Cc1cc(C(F)(F)F)cc(N2C(=O)C[C@@H]3CN(C[C@H]4C[C@@H](NC(=O)/C=C/CN(C)C)C4)c4c(C)cccc4N(C)C(=O)[C@H]32)n1 [Example 332, (E)-N-((1S,3s)-3-(((3aR,11aS)-6,10-dimethyl-1-(6-methyl-4-(trifluoromethyl)-pyridin-2-yl)-2,11-dioxo-1,2,3,3a,4,10, 11,11a-octahydro-5H-benzo[b]pyrrolo [2,3-f][1,4]diazocin-5-yl)methyl)cyclo-butyl)-4-(dimethyl-amino)but-2-enamide]
